In brackets after ≈: the same amount, converted by molar mass. Some results are limits rather than exact numbers.

What all share (assay type): binding
Test [1] deals with rabbit anti-SDMA antibody in serum, Rabbit # 156 (SDMA conjugated with BSA immunogen). As to the kind of experiment: Competitive ELISA, specificity of anti-SDMA antibody, Rabbit # 156. The conditions noted are these: Rabbit # 156 (1:20K); for IC 50: competition with SDMA-HRP conjugate. The method, then:
(§1) In order to assess the specificity of the antibodies obtained by the procedures described in Example 3 above, their reactivity to SDMA, ADMA, L-arginine, and/or N-methylarginine was measured in a competitive ELISA assay (Table 1).
(§2) ADMA-2HCl, SDMA-2HCl, N-methylarginine acetate (Sigma, Cat. No. M7033) or L-arginine (Sigma, Cat. No. A5006) were each dissolved in PBS to make stock solutions at 1 mg/ml. From these stock solutions, working solutions at 100 μg/ml, 10 μg/m and 1 μg/m were prepared in PBS.
(§3) […] After a 30 minutes incubation period at room temperature, the wells were washed 4 times with PBST (Phosphate Buffered Saline, 0.05% Tween).
(§4) 100 μl of 3,3′,5,5′-Tetramethylbenzidine (commercially available from Promega Corporation of Madison, Wis.) was subsequently added. Following a 30 minutes incubation period at room temperature, 100 μl of stop solution (1 N HCl) was added and the absorbance was measured at […] using a BioTek ELX 808 (Winooski, Vt.) plate reader. The data was subjected to quantification using Softmax software (Molecular Devices, Sunnyvale, Calif.).
(§5) The absorbance values obtained with 0 μg/mL, 1 μg/mL, 10 μg/mL, and 100 μg/mL of ADMA, SDMA, N-methylarginine or L-arginine, respectively, were determined and plotted. The concentration of SDMA at which the absorbance value was reduced by 50% (relative to the maximum absorbance obtained at 0 μg/mL SDMA; i.e. IC50) was divided by each of the concentrations of ADMA, N-methylarginine or L-arginine, respectively, at which the absorbance value was reduced by 50% (IC50). The resulting value was multiplied by 100 to obtain the value “% cross-reactivity”.
(In general: An ELISA detects its analyte on a solid surface through an enzyme-linked reagent.)

The test system of test [2] is rabbit anti-SDMA antibody in serum, Rabbit # 157 (SDMA conjugated with BSA immunogen). The experiment in a line: Competitive ELISA, specificity of anti-SDMA antibody, Rabbit # 157. The conditions noted are these: Rabbit # 157 (1:15K); for IC 50: competition with SDMA-HRP conjugate. The method, then: as §1, §2, §3, §4, §5
Test [3] deals with rabbit anti-SDMA antibody in serum, Rabbit # 155 (SDMA conjugated with BSA immunogen). The experiment in a line: Competitive ELISA, specificity of anti-SDMA antibody, Rabbit # 155. The conditions noted are these: Rabbit # 155 (1:3K); for IC 50: competition with SDMA-HRP conjugate. On the procedure: as §1, §2
(§6) 50 μl of the SDMA-HRP conjugate (as described in Example 5 below), 50 μl of ADMA, SDMA, N-methylarginine or L-arginine (at concentrations from 1-100 μg/ml as described above), and 50 μl of rabbit anti-SDMA antibody in serum (1:3000 titer) were sequentially added to an individual well in a 96-well polystyrene microwell plate, precoated with sheep anti-rabbit IgG (commercially available from Beacon Analytical Systems Inc. of Portland, Me.). After a 30 minutes incubation period at room temperature, the wells were washed 4 times with PBST (Phosphate Buffered Saline, 0.05% Tween).
as §4, §5

For test [4], the system named is polyclonal antibody from Rabbit No. 154. The experiment in a line: Specificity determined with greater stringency, polyclonal antibody from Rabbit No. 154. The conditions noted are these: Rabbit No. 154, greater stringency. The method, then:
as §1, §2, §6, §4
The absorbance values obtained with 0 μg/mL, 1 μg/mL, 10 μg/mL, and 100 μg/mL of ADMA, SDMA, N-methylarginine or L-arginine, respectively, were determined and plotted. […]
In another experiment, using only polyclonal antibody from Rabbit No. 154, the specificity of the antibody was determined with greater stringency by the method described above.

Test [5] relates to rabbit anti-SDMA antibody in serum, Rabbit # 152 (SDMA conjugated with KLH immunogen). As to the kind of experiment: Competitive ELISA, specificity of anti-SDMA antibody, Rabbit # 152. The conditions noted are these: Rabbit # 152 (1:5K); for % Cross Reactivity: IC50 of SDMA divided by IC50 of competitor x 100; for IC 50: competition with SDMA-HRP conjugate, absorbance reduced by 50%. On the procedure: as §1, §2, §3, §4, §5

The test system of test [6] is rabbit anti-SDMA antibody in serum, Rabbit # 154 (SDMA conjugated with KLH immunogen). The experiment in a line: Competitive ELISA, specificity of anti-SDMA antibody, Rabbit # 154. The conditions noted are these: Rabbit # 154 (1.25K); for IC 50: competition with SDMA-HRP conjugate. The method, then: as §1, §2, §3, §4, §5
Test [7] relates to rabbit anti-SDMA antibody in serum, Rabbit # 153 (SDMA conjugated with KLH immunogen). As to the kind of experiment: Competitive ELISA, specificity of anti-SDMA antibody, Rabbit # 153. The conditions noted are these: Rabbit # 153 (1:2.5K); for IC 50: competition with SDMA-HRP conjugate. On the procedure: as §1, §2, §3, §4, §5

On to `N=C(N)NCCC[C@H](N)C(=O)O` [L-Arginine, arginine], for which the “% Cross Reactivity” value in test [1], in test [2], in test [3], in test [5], in test [6] and in test [7] was <1% each time. The “IC 50” value in test [1], in test [2], in test [3], in test [5], in test [6] and in test [7] was >100 µg/mL in each case. The “Specificity (Cross-Reactivity)” value in test [4] is <0.01%.
`CNC(=N)NCCCC(N)C(=O)O` (stereo not drawn) [N-MMA, N-monomethylarginine]: the “% Cross Reactivity” value in test [1], in test [2], in test [3], in test [5], in test [6] and in test [7] was <1% in each case. Further, the “IC 50” value in test [1] is >100 µg/mL; in test [2], >100 µg/mL; in test [3], 79 µg/mL (≈ 420 µM); in test [5] it was >100 µg/mL; in test [6], >100 µg/mL; in test [7], >100 µg/mL.
Turning to `C/N=C(\NC)NCCCC(N)C(=O)O` (stereo not drawn) [SDMA, symmetrical dimethylarginine], the “% Cross Reactivity” value in test [1], in test [2], in test [3], in test [5], in test [6] and in test [7] was 100% throughout. Also, the “IC 50” value is 1.3 µg/mL (≈ 6.43 µM) in test [1]; 1.6 µg/mL (≈ 7.91 µM) in test [2]; 0.73 µg/mL (≈ 3.61 µM) in test [3]; 1.10 µg/mL (≈ 5.44 µM) in test [5]; 0.49 µg/mL (≈ 2.42 µM) in test [6]; 0.65 µg/mL (≈ 3.21 µM) in test [7]. For the same molecule, the “Specificity (Cross-Reactivity)” value in test [4] is 100%.
As to `CN(C)C(=N)NCCCC(N)C(=O)O` (stereo not drawn) [ADMA, asymmetrical dimethylarginine], the “% Cross Reactivity” value in test [1], in test [2], in test [3], in test [5], in test [6] and in test [7] was <1% in each case. Further, the “IC 50” value in test [1], in test [2], in test [3], in test [5], in test [6] and in test [7] was >100 µg/mL each time. Also, in test [4], the “Specificity (Cross-Reactivity)” value is listed as <0.2%.

(Values after patent US8481690B2, “Methods for detecting symmetrical dimethylarginine” (IDEXX Laboratories, Inc., priority 2008, dated 2013).)
